Reference: patent US6610282B1, “Polymeric controlled release compositions” (Rohm and Haas Company, priority 1998, dated 2003)

Assay: Release of 4,5-dichloro-2-octyl-3-isothiazolone from dry marine paint film in synthetic sea water
Type: physicochemical
Details: 14 Days in synthetic sea water; marine paint film with 5%wt active on glass slides, dried 6 days; HPLC of film extract
Experimental: The compositions of Example 1 were evaluated for the control of the release of biologically active molecules in a marine paint.
A blank paint, that is one that contained no biologically active molecules, was dosed with Samples 2-5. The amount of the samples added was such that the total amount of 4,5-dichloro-2-octyl-3-isothiazolone in the paint was 5%wt, based on the total weight of the dry paint film. A control paint was prepared by adding 4,5-dichloro-2-octyl-3-isothiazolone alone. Glass slides were painted with the treated paints as well as the control paint and allowed to dry in a hood for 6 days. The slides were then submerged in a tank of synthetic sea water. The slides were removed after 14 days and the paint film extracted. The extracts were analyzed by HPLC to determine the amount of 4,5-dichloro-2-octyl-3-isothiazolone remaining.

SMILES: CCCCCCCCn1sc(Cl)c(Cl)c1=O [Control, 4,5-dichloro-2-octyl-3-isothiazolone]
- % of 4,5-Dichloro-2-n-octyl-3-isothiazolone Released: 29.0%
